Source: ChEMBL document CHEMBL1130183, “Synthesis of a novel sialic acid derivative (sialylphospholipid) as an antirotaviral agent” (J Med Chem, 1997)

Experiments:
Assay type in all cases: functional, organism-based; call rule not given here
Rotavirus [1] = test: Inhibitory concentration against human rotavirus MO strain
Simian rotavirus [2] = test: Inhibitory concentration against Simian rotavirus SA-11 strain; details: Rotavirus A
Simian rotavirus [3] = test: Inhibitory concentration against Simian rotavirus SA-11 strain; No inhibition
Rotavirus [4] = test: Inhibitory concentration against human rotavirus MO strain; No inhibition

Row | SMILES | IC50 (Rotavirus [1]) [µM] | IC50 (Simian rotavirus [2]) [µM] | IC50 (Simian rotavirus [3]) | IC50 (Rotavirus [4])
1 | CCCCCCCCCCCCCCCCCC(=O)OCC(COP(=O)(O)OCCCCCCCCOC1(C(=O)O)CC(O)C(NC(C)=O)C([C@H](O)[C@H](O)CO)O1)OC(=O)CCCCCCCCCCCCCCCCC (stereo not given in full) | 16.1 | 4.35 | – | –
2 | CCCCCCCCCCCCCCCCCC(=O)OCC(COP(=O)([O-])OCC[N+](C)(C)C)OC(=O)CCCCCCCCCCCCCCCCC (stereo not given) | – | – | Not Active | Not Active
3 | CC(=O)NC1C(O)CC(O)(C(=O)O)OC1C(O)C(O)CO (stereo not given) | – | 4280 | – | –
